Source: US20260234159A1, “SMALL MOLECULE TREATMENT OF FATTY LIVER DISEASE AND HCC” (SCANDIEDGE THERAPEUTICS AB, priority 2023, published 2026)
Read-outs that look alike come from different tables or passages of the source.

Legend:
HepG2 cells [1] = experiment: Triglyceride (TAG) measurement assay, one week steatosis model; format: cell-based, human; details: Homo sapiens
Experimental: (§1) HepG2 wild type cells were purchased from genome engineering company Synthego. Cells were maintained with Roswell Park Memorial Institute growth media, RPMI, 1640 (R2405, Sigma-Aldrich) and supplemented with 10% fetal bovine serum (FBS, F7524, Sigma-Aldrich), 1% penicillin-streptomycin (P/S, P4333, Sigma-Aldrich). Steatosis induction media was prepared as high glucose Dulbecco's Modified Eagle Media (DMEM, D0819, Sigma-Aldrich) with 10% FBS, 1% P/S media supplemented with 10 μg/ml insulin (I9278, Sigma-Aldrich), and 10 μM T0901317 (T2320, Sigma-Aldrich). HepG2 cells were seeded 6×10^4 cells per well for 96-well plate and 1×10^6 cells per well for 6-well plate. HepG2 cells were incubated with steatosis induce media (SM) for one week by 3 day+2 day+2 day with total three times media exchange.
HepG2 cells were seeded at 6×10^4 cells per well into 96 well plate and induced steatosis for one week with 10 μM of target drugs. After steatosis induction, cells were washed with 200 μl of phosphate buffered saline (PBS) and triglyceride contents was measured by Triglyceride Assay Kit—Quantification (ab65336, Abcam) following manufacturer's instruction. Optical density (O.D) values were detected with microplate reader at 570 nm (Hidex Sense Beta Plus).
(§2) HepG2 cells were seeded at 60,000 cells per well in 96 well plate. Using steatosis induce media, the cells were treated with 10 μM of target drugs for one week. The media was changed 3 times at day 0, day 3 and day 5. TAG assay was performed using MAK266-1KT SDS Triglyceride Quantification Colorimetric kit and cell viability analysis was performed using MTT assay.

JNK2 = biological target: T1, JNK2 (Homo sapiens, UniProt P45984); experiment: JNK enzyme activity assay, purified JNK2; format: biochemical; details: 10 μM, Phospho-c Jun (Ser 73) by western blot
T1 construct: purchased Thermo Fisher PV3620
Experimental: (§3) JNK activity was measured with JNK Activity Assay Kit (ab273417, Abcam). JNK activity assay was performed with purified JNK, JNK1 (PV3319, Thermo Fisher), JNK2 (PV3620, Thermo Fisher) JNK3(PV4563, Thermo Fisher). 0.3 μg of each JNK purified protein were incubated with c-Jun Protein/ATP in Kinase Assay Buffer for 1 hr followed by manufacturer's instruction with 10 μM small molecules. Catalysed substrate Phospho-c Jun (Ser 73) was detected by western blot analysis. Western blot analysis performed with JNK Activity Assay kit supplied anti-Phospho-cJun (Ser 73) Specific Antibody at 1:10,000 for overnight and Goat Anti-Rabbit HRP (ab205718, abeam) at 1:10,000 for 1 hr incubation as primary and secondary antibody.

JNK protein = experiment: Cellular thermal shift assay (CETSA), protein-ligand binding; parameters: species or system human; details: 10 μM, 60° C.; versus JNK-IN-5A
Experimental: HepG2 cells were trypsinized and calculated at 1×10^6 cells into 1.5 ml micro centrifuge tube with 100 μl cell culture media. Cells were incubated in a CO2 incubator at 37° C. for 1 hr with 10 μM of each target drug. Drug treated cells were heated at 60° C. for 3 min using a heat plate. Heated cells were lysed with Native lysis buffer (ab156035, Abcam). Thermal shifted JNK proteins were detected with western blot analysis using JNK1+2+3 antibody (Ab179461, Abcam) and band intensity was analysed with ImageJ program.

JNK1 = biological target: T2, JNK1 (Homo sapiens, UniProt P45983); experiment: JNK enzyme activity assay, purified JNK1; format: biochemical; details: 10 μM, Phospho-c Jun (Ser 73) by western blot
T2 construct: purchased Thermo Fisher PV3319
Experimental: as §3

JNK3 = biological target: T3, JNK3 (Homo sapiens, UniProt P53779); experiment: JNK enzyme activity assay, purified JNK3; format: biochemical; details: 10 μM; greatest inhibition was obtained for JNK3
T3 construct: purchased Thermo Fisher PV4563
Experimental: as §3

[2] = MTT cell viability after one week steatosis (ranking of target molecules); format: cell-based, human; details: human, HepG2 cells (wild type); HepG2, 10 μM, one week steatosis induce media, MTT; Control 100.00
Experimental: as §1, §2

[3] = MTT cell viability / IC50 in growth media; format: cell-based, human; details: human, HepG2 cells; 10 μM, treatment for 2 days
Experimental: (§4) The cytotoxic effects of the synthesized drugs on the HepG2 cells were tested by MTT (Thiazolyl Blue Tetrazolium Bromide) method. HepG2 cells were seeded 2×10^4 cells per well in 96-well plate in 200 μL growth media. […] After the incubation period, 5 mg/ml MTT (M2128, Sigma-Aldrich) solution in PBS (10 μL) was added to each well. After 1 hr, the MTT solution and all media were removed from the wells. 100 μl of DMSO was added and mixed to dissolve the formazan crystals. Cell viability was analysed by measuring the absorbance of the dissolved formazan in a microplate reader at a wavelength of 570 nm with microplate reader (Hidex Sense Beta Plus).
(§5) HepG2 cells were maintained and used with RPMI 1640 (R2405, Sigma-Aldrich) supplemented with 10% fetal bovine serum (F7524, Sigma-Aldrich), 1% P/S (P4333, Sigma-Aldrich). 20,000 cells per well of HepG2 cells were seeded into a 96-well plate and triplicated for MTT assay and LDH assay. Cell viability was measured by MTT assay (M6494, ThermoFisher) and cytotoxicity was measured by LDH assay kit (ab65393, abcam) by following manufacturer's instructions. Optical density (O.D) was numerated using a microplate reader (Hidex Sense Meta Plus).

HepG2 cells [4] = experiment: MTT cell viability / IC50 in growth media; format: cell-based, human; details: Homo sapiens, 48 h; HepG2, treatment for 2 days, 30 μM to 30 nM
Experimental: as §4, §5

HepG2 cells [5] = experiment: Wound healing assay; format: cell-based; details: Homo sapiens, HepG2, 96 h, day 4, untreated 100% wound closure, read-out: wound healing delayed by
Experimental: (§6) Transwell membrane was coated with 100 μl collagen (Sigma C3867, USA) diluted with PBS to a concentration of 1 mg/ml. After overnight incubation at 4° C., the collagen solution was discarded and the membrane was washed with PBS. 100,000 cells in 200 μl serum free media together with the tested compounds were added into the upper well and 600 μl of 10% FBS supplemented growth media was added to the lower well as an invasive attractant in a 24-well plate. Cells were incubated at 37° C. in a CO2 incubator for one day. The cells were fixed with 3.7% formaldehyde for 30 minutes at room temperature and washed with PBS twice. The cells were stained with 1% crystal violet in PBS for 20 minutes and residual cells in inner membrane were swabbed gently with a cotton swab. Invaded cells located at the outer membrane were imaged by ZOE Fluorescent Cell Imager (Bio-Rad, USA) and counted by image. For wound healing assay, 100,000 cells per well were seeded into 24-well plates and grown until 95-100% confluent. Linear wound was created by using a 200 μl pipette tip. Image was recorded at the time point of day 0 until control group wound closure with 1 μM of compounds by ZOE Fluorescent Cell Imager (Bio-Rad, USA). Wound areas were measured using ImageJ software.

HepG2 cells [6] = experiment: FACs analysis with PI staining (cell cycle); format: cell-based, human; details: PI FACs, 10 μM, 2 days
Experimental: 400,000 HepG2 cells were seeded in a 6-well plated and treated with 10 μM of the compounds for 2 days. Cells were fixed with 70% ethanol and stained with 50 μg/ml PI. Prepared cells were analysed using BD FACS Canto II Flow Cytometry system at PE-A channel 10,000 cells per group. The data was histogram plotted with BD FACSDiva 9.0.

HepG2 cells [7] = experiment: Mitochondrial membrane potential assay (TMRE); format: cell-based, human; details: 10 μM, one day
Experimental: HepG2 cells were seeded into a 6-well plate at 400,000 cells per well. After treatment with the compounds at desired concentration and time, TMRE (ab113852, abcam), Autophagy (ab139484, abcam), ROS (ab113851, abcam), and Lipid peroxidation (ab243377, abcam) assay were performed according to manufacturer's instructions. Fluorescence images were taken using ZOE™ Fluorescent Cell Imager (Biorad) and ROI of fluorescence intensity was measured and calculated by Image J. For microplate reader florescence assay, 40,000 of HepG2 cells were seeded into a 96-well plate and triplicated. GFP (Ex480 nm, Em530 nm) and RFP (Ex549 nm, Em574 nm) were measured using a microplate reader (Hidex Sense Meta Plus).

HepG2 cells [8] = experiment: MTT cell viability after one week steatosis (ranking of target molecules); format: cell-based, human
Experimental: as §1, §2

JNK1/2/3 = experiment: Western blot, JNK1/2/3 P54 and p46 isoforms; format: cell-based, human; details: 10 μM, 2 days
Experimental: HepG2 cells were seeded into a 6-well plate at 400,000 cells per well. After treatment with 10 μM of JNK-IN-5A and its derivatives for two days, lysates were harvested with CelLytic M (C2978, Sigma-Aldrich). […] SDS PAGE were performed using Mini-PROTEAN® TGX™ Precast Gels (Bio-Rad) and transferred using Trans-Blot® Turbo™ Transfer System (Bio-Rad). […] ImageQuantTMLAS 500 (29-0050-63, GE) was used to detect protein bands.

HepG2 cells [9] = experiment: Invasion assay (transwell); format: cell-based, human; details: Homo sapiens, HepG2, 24 hr, read-out: invasiveness reduced by
Experimental: The effects of the treatment with the compounds on the invasion ability of HepG2 and Huh7 cells were determined by 8 μm pores transwell chamber (Corning™ 3464, USA).
as §6

[10] = 168 h, HepG2, 10 μM, one week steatosis induce media, Control 100.00, read-out: TAG (%)
[11] = HepG2, 168 h, ratio between TAG content and cell viability, Control 100.0, read-out: TAG/cell viability

T2 sequence (P45983 whole entry): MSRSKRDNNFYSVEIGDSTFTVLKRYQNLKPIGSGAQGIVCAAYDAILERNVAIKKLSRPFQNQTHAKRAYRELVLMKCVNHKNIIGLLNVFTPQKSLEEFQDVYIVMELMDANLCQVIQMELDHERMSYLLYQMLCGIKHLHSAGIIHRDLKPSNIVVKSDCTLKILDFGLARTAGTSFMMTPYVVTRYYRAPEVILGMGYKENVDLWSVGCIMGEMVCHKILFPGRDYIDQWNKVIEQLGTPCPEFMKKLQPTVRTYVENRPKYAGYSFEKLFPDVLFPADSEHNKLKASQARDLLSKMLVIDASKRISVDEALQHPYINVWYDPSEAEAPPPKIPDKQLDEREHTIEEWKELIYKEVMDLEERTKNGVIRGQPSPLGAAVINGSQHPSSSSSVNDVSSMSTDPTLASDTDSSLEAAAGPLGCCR
T1 sequence (P45984 whole entry): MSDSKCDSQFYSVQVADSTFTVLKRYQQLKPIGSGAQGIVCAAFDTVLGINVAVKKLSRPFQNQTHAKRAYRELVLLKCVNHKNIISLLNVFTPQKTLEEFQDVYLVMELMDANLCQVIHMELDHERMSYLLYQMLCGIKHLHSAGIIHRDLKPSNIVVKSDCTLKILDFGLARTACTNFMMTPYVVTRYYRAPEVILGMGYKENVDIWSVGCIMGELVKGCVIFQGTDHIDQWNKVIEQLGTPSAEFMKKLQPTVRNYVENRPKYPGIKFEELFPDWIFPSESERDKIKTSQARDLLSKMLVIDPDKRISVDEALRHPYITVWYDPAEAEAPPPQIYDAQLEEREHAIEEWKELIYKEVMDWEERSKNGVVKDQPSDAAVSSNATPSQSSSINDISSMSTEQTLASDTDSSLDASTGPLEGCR
T3 sequence (P53779 whole entry): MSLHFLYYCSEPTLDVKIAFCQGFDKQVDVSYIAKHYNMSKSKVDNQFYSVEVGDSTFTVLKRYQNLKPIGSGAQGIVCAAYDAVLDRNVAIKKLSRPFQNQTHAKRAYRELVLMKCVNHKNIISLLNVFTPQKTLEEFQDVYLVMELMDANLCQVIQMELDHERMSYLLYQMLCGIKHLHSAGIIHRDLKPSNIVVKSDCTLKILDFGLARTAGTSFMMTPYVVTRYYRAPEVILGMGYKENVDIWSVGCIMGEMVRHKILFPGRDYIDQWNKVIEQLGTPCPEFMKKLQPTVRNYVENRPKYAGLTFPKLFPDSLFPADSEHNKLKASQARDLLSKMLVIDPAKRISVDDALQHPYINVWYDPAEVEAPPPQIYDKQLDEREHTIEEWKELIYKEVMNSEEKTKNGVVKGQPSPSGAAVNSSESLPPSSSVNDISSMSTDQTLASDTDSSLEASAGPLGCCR

| SMILES | JNK2 activity (JNK2) | binding to the JNK protein (JNK protein) | JNK1 activity (JNK1) | JNK3 activity (JNK3) | IC50 (HepG2 cells [4]) | activity at 10 µM (HepG2 cells [1]; [10]) | activity at 10 µM (HepG2 cells [1]; [11]) | viability at 1 week, 10 µM [2] | viability at 2 days, 10 µM [3] | inhibition at 1 µM (HepG2 cells [5]) | Cell population G0/G1 (HepG2 cells [6]) | Cell population G2/M (HepG2 cells [6]) | Cell population S (HepG2 cells [6]) | mitochondrial membrane potential (HepG2 cells [7]) | cell viability of HepG2 (HepG2 cells [8]) | JNK1/2/3 p46 expression (JNK1/2/3) | inhibition at 1 µM (HepG2 cells [9]) |
| --- | --- | --- | --- | --- | --- | --- | --- | --- | --- | --- | --- | --- | --- | --- | --- | --- | --- |
| CN(C)C(=O)N1CCc2c(sc(NC(=O)c3cccc4ccccc34)c2C#N)C1 [PKL-A117] | inhibited | better binding | inhibited | inhibited | – | 12.8% | 31.4% | 40.6% | – | – | – | – | – | – | – | – | – |
| N#Cc1c(NC(=O)c2cccc3ccccc23)sc2c1CCN(C(=O)Nc1ccccc1F)C2 [PKL-A119] | inhibited | better binding | inhibited | inhibited | – | 12.5% | 31.2% | 40.1% | – | – | – | – | – | – | – | – | – |
| CC(C)(C)OC(=O)N1CCc2c(sc(NC(=O)c3cccc4ccccc34)c2C#N)C1 [PKL-A131] | inhibited | better binding | inhibited | inhibited | – | 13.1% | 29.3% | 44.8% | – | – | – | – | – | – | – | – | – |

Second part, led by results:

| JNK2 activity (JNK2) | binding to the JNK protein (JNK protein) | JNK1 activity (JNK1) | JNK3 activity (JNK3) | IC50 (HepG2 cells [4]) | SMILES | activity at 10 µM (HepG2 cells [1]; [10]) | activity at 10 µM (HepG2 cells [1]; [11]) | viability at 1 week, 10 µM [2] | viability at 2 days, 10 µM [3] | inhibition at 1 µM (HepG2 cells [5]) | Cell population G0/G1 (HepG2 cells [6]) | Cell population G2/M (HepG2 cells [6]) | Cell population S (HepG2 cells [6]) | mitochondrial membrane potential (HepG2 cells [7]) | cell viability of HepG2 (HepG2 cells [8]) | JNK1/2/3 p46 expression (JNK1/2/3) | inhibition at 1 µM (HepG2 cells [9]) |
| --- | --- | --- | --- | --- | --- | --- | --- | --- | --- | --- | --- | --- | --- | --- | --- | --- | --- |
| inhibited | better binding | inhibited | inhibited | – | COc1ccc(C(=O)N2CCc3c(sc(NC(=O)c4cccc5ccccc45)c3C#N)C2)cc1OC [PKL-A132] | 12.8% | 31.9% | 40.3% | – | – | – | – | – | – | – | – | – |
| – | – | – | – | 15.9 µM | N#Cc1c(NC(=O)c2cccc3ccccc23)sc2c1CCN(C(=O)Nc1ccccc1Cl)C2 [PKL-A156] | 13.5% | 50.8% | 26.6% | 53.7% | 26.2% | 30.1 | 60.8 | 2.3 | significantly decreased | exceptionally low cell viability | not significantly altered | 14% |
| – | – | – | – | 7.6 µM | N#Cc1c(NC(=O)c2cccc3ccccc23)sc2c1CCN(C(=O)Nc1ccccc1C(F)(F)F)C2 [PKL-A158] | 8.35% | – | 9.59% | 51.9% | 39.5% | 31.6 | 60.3 | 3.5 | significantly decreased | exceptionally low cell viability | not significantly altered | 20.8% |
